Experimental data from patent publication US20260132164A1, “PNU ANTHRACYCLINE DERIVATIVES AND METHODS OF USE THEREOF” (Merck Sharp & Dohme LLC, priority 2022, published 2026).

Test system: BxPC3
Test: CellTiter-Glo 2.0 Cytotoxicity Assay
Assay type: cell-based
Settings: CellTiter-Glo 2.0 luminescence; compound added day 1, read on day 4 or 5; 3000 cells/well

First: COc1cccc2c1C(=O)c1c(O)c3c(c(O)c1C2=O)C[C@@](O)(C(=O)NCCN(C)C(=O)C1CCNC1)C[C@@H]3O[C@H]1C[C@H]2[C@H](O[C@@H]3[C@@H](OC)OCCN32)[C@H](C)O1 (single isomer, unassigned) [Compound 50]
Second: COc1cccc2c1C(=O)c1c(O)c3c(c(O)c1C2=O)C[C@@](O)(C(=O)NC1CCC1N)C[C@@H]3O[C@H]1C[C@H]2[C@H](O[C@@H]3[C@@H](OC)OCCN32)[C@H](C)O1 (some centres unmarked) [Compound 19]
The EC50 of the first is 5-fold higher: 20 nM for the first, 4 nM for the second. The second is the more potent here.

First: COc1cccc2c1C(=O)c1c(O)c3c(c(O)c1C2=O)C[C@@](O)(C(=O)NC1CNCC1(F)F)C[C@@H]3O[C@H]1C[C@H]2[C@H](O[C@@H]3[C@@H](OC)OCCN32)[C@H](C)O1 (some centres unmarked) [Compound 16]
Second: COc1cccc2c1C(=O)c1c(O)c3c(c(O)c1C2=O)C[C@@](O)(C(=O)NC1CCC1N)C[C@@H]3O[C@H]1C[C@H]2[C@H](O[C@@H]3[C@@H](OC)OCCN32)[C@H](C)O1 (some centres unmarked) [Compound 20]
The EC50 of the first is 2.8-fold higher: 24 nM for the first, 8.5 nM for the second.

`COc1cccc2c1C(=O)c1c(O)c3c(c(O)c1C2=O)C[C@@](O)(C(=O)NC1CNCC1(F)F)C[C@@H]3O[C@H]1C[C@H]2[C@H](O[C@@H]3[C@@H](OC)OCCN32)[C@H](C)O1` (some centres unmarked) [Compound 17] was tested, and the EC50 was 10.7 nM.

Same assay, conditions: Homo sapiens, BXPC-3, CellTiter-Glo 2.0 luminescence; compound added day 1, read on day 4 or 5; 3000 cells/well

Going from `COc1cccc2c1C(=O)c1c(O)c3c(c(O)c1C2=O)C[C@@](O)(C(=O)NCCN(C)C(=O)C1CCNC1)C[C@@H]3O[C@H]1C[C@H]2[C@H](O[C@@H]3[C@@H](OC)OCCN32)[C@H](C)O1` (single isomer, unassigned) [Compound 49] to `COc1cccc2c1C(=O)c1c(O)c3c(c(O)c1C2=O)C[C@@](O)(C(=O)NC1CCNC1)C[C@@H]3O[C@H]1C[C@H]2[C@H](O[C@@H]3[C@@H](OC)OCCN32)[C@H](C)O1` (some centres unmarked) [Compound 12], the EC50 falls from 31 nM to 7.7 nM (4-fold).

`COc1cccc2c1C(=O)c1c(O)c3c(c(O)c1C2=O)C[C@@](O)(C(=O)NCc1cccc(N)c1)C[C@@H]3O[C@H]1C[C@H]2[C@H](O[C@@H]3[C@@H](OC)OCCN32)[C@H](C)O1` [Compound 1, (2S,4S)—N-(3-aminobenzyl)-2,5,12-trihydroxy-7-methoxy-4-(((1S,3R,4aS,9S,9aR,10aS)-9-methoxy-1-methyloctahydro-1H-pyrano[4′,3′:4,5]oxazolo[2,3-c][1,4]oxazin-3-yl)oxy)-6,11-dioxo-1,2,3,4,6,11-hexahydrotetracene-2-carboxamide] and `COc1cccc2c1C(=O)c1c(O)c3c(c(O)c1C2=O)C[C@@](O)(C(=O)NCc1ccc(N)cc1)C[C@@H]3O[C@H]1C[C@H]2[C@H](O[C@@H]3[C@@H](OC)OCCN32)[C@H](C)O1` [Compound 23] are within 1.5-fold of each other in EC50: 0.08 nM for the first, 0.06 nM for the second.

Compared with `COc1cccc2c1C(=O)c1c(O)c3c(c(O)c1C2=O)C[C@@](O)(C(=O)N1CC(CN)C1)C[C@@H]3O[C@H]1C[C@H]2[C@H](O[C@@H]3[C@@H](OC)OCCN32)[C@H](C)O1` [Compound 2], `COc1cccc2c1C(=O)c1c(O)c3c(c(O)c1C2=O)C[C@@](O)(C(=O)N1CC(N)C1)C[C@@H]3O[C@H]1C[C@H]2[C@H](O[C@@H]3[C@@H](OC)OCCN32)[C@H](C)O1` [Compound 24] is 2.7-fold lower in EC50: 22 nM for the first, 8.3 nM for the second.

`COc1cccc2c1C(=O)c1c(O)c3c(c(O)c1C2=O)C[C@@](O)(C(=O)NCCNC(=O)[C@@H]1CCCN1)C[C@@H]3O[C@H]1C[C@H]2[C@H](O[C@@H]3[C@@H](OC)OCCN32)[C@H](C)O1` [Compound 3] and `COc1cccc2c1C(=O)c1c(O)c3c(c(O)c1C2=O)C[C@@](O)(C(=O)NCCNC(=O)CN)C[C@@H]3O[C@H]1C[C@H]2[C@H](O[C@@H]3[C@@H](OC)OCCN32)[C@H](C)O1` [Compound 4] are the same in EC50: 13 nM for the first, 13 nM for the second.

Compared with `COc1cccc2c1C(=O)c1c(O)c3c(c(O)c1C2=O)C[C@@](O)(C(=O)NCCNC(=O)NN)C[C@@H]3O[C@H]1C[C@H]2[C@H](O[C@@H]3[C@@H](OC)OCCN32)[C@H](C)O1` [Compound 5], `COc1cccc2c1C(=O)c1c(O)c3c(c(O)c1C2=O)C[C@@](O)(C(=O)NCCNC(=O)[C@H](C)N)C[C@@H]3O[C@H]1C[C@H]2[C@H](O[C@@H]3[C@@H](OC)OCCN32)[C@H](C)O1` [Compound 7] is 4.6-fold higher in EC50: 2.8 nM for the first, 13 nM for the second.

Compared with `COc1cccc2c1C(=O)c1c(O)c3c(c(O)c1C2=O)C[C@@](O)(C(=O)N1CC(CNC(=O)[C@H](C)N)C1)C[C@@H]3O[C@H]1C[C@H]2[C@H](O[C@@H]3[C@@H](OC)OCCN32)[C@H](C)O1` [Compound 6], `COc1cccc2c1C(=O)c1c(O)c3c(c(O)c1C2=O)C[C@@](O)(C(=O)N1CC(CN2CC(NC(=O)[C@H](C)N)C2)C1)C[C@@H]3O[C@H]1C[C@H]2[C@H](O[C@@H]3[C@@H](OC)OCCN32)[C@H](C)O1` [Compound 11] is 96-fold higher in EC50: 8.6 nM for the first, 822 nM for the second. The first is the more potent here.

Compared with `COc1cccc2c1C(=O)c1c(O)c3c(c(O)c1C2=O)C[C@@](O)(C(=O)NCCCNCCCNC(=O)CN)C[C@@H]3O[C@H]1C[C@H]2[C@H](O[C@@H]3[C@@H](OC)OCCN32)[C@H](C)O1` [Compound 8], `COc1cccc2c1C(=O)c1c(O)c3c(c(O)c1C2=O)C[C@@](O)(C(=O)NCCCN)C[C@@H]3O[C@H]1C[C@H]2[C@H](O[C@@H]3[C@@H](OC)OCCN32)[C@H](C)O1` [Compound 18] is 5.6-fold lower in EC50: 48 nM for the first, 8.5 nM for the second.

Going from `CNCCNC(=O)[C@]1(O)Cc2c(O)c3c(c(O)c2[C@@H](O[C@H]2C[C@H]4[C@H](O[C@@H]5[C@@H](OC)OCCN54)[C@H](C)O2)C1)C(=O)c1c(OC)cccc1C3=O` [Compound 9] to `COc1cccc2c1C(=O)c1c(O)c3c(c(O)c1C2=O)C[C@@](O)(C(=O)NC1CNC1)C[C@@H]3O[C@H]1C[C@H]2[C@H](O[C@@H]3[C@@H](OC)OCCN32)[C@H](C)O1` [Compound 27], the EC50 rises from 17 nM to 39 nM (2.3-fold). The first is the more potent here.

First: COc1cccc2c1C(=O)c1c(O)c3c(c(O)c1C2=O)C[C@@](O)(C(=O)N1CC(CN2CC(N)C2)C1)C[C@@H]3O[C@H]1C[C@H]2[C@H](O[C@@H]3[C@@H](OC)OCCN32)[C@H](C)O1 [Compound 10]
Second: COc1cccc2c1C(=O)c1c(O)c3c(c(O)c1C2=O)C[C@@](O)(C(=O)N1CC2(CCNC2)C1)C[C@@H]3O[C@H]1C[C@H]2[C@H](O[C@@H]3[C@@H](OC)OCCN32)[C@H](C)O1 [Compound 28]
The EC50 of the first is 3.9-fold lower: 124 nM for the first, 478 nM for the second.

First: COc1cccc2c1C(=O)c1c(O)c3c(c(O)c1C2=O)C[C@@](O)(C(=O)N(C)CCN)C[C@@H]3O[C@H]1C[C@H]2[C@H](O[C@@H]3[C@@H](OC)OCCN32)[C@H](C)O1 [Compound 13]
Second: COc1cccc2c1C(=O)c1c(O)c3c(c(O)c1C2=O)C[C@@](O)(C(=O)NCCCN(C)CCCN)C[C@@H]3O[C@H]1C[C@H]2[C@H](O[C@@H]3[C@@H](OC)OCCN32)[C@H](C)O1 [Compound 14]
The EC50 of the first is 2-fold lower: 5.4 nM for the first, 11 nM for the second.

Compared with `COc1cccc2c1C(=O)c1c(O)c3c(c(O)c1C2=O)C[C@@](O)(C(=O)NCCN1CCC(N)C1=O)C[C@@H]3O[C@H]1C[C@H]2[C@H](O[C@@H]3[C@@H](OC)OCCN32)[C@H](C)O1` (some centres unmarked) [Compound 15], `COc1cccc2c1C(=O)c1c(O)c3c(c(O)c1C2=O)C[C@@](O)(C(=O)N[C@H]1CCCC[C@@H]1N)C[C@@H]3O[C@H]1C[C@H]2[C@H](O[C@@H]3[C@@H](OC)OCCN32)[C@H](C)O1` [Compound 25] is 6.1-fold lower in EC50: 64 nM for the first, 10.5 nM for the second. The second is the more potent here.

Going from `COc1cccc2c1C(=O)c1c(O)c3c(c(O)c1C2=O)C[C@@](O)(C(=O)N[C@@H]1CCCC[C@H]1N)C[C@@H]3O[C@H]1C[C@H]2[C@H](O[C@@H]3[C@@H](OC)OCCN32)[C@H](C)O1` [Compound 26] to `COc1cccc2c1C(=O)c1c(O)c3c(c(O)c1C2=O)C[C@@](O)(C(=O)N1CCC2(CNC2)C1)C[C@@H]3O[C@H]1C[C@H]2[C@H](O[C@@H]3[C@@H](OC)OCCN32)[C@H](C)O1` [Compound 29], the EC50 rises from 2.7 nM to 90 nM (33-fold).
